Assay results reported in US20100298141A1, “SUBSTITUTED PYRIDINE N-OXIDE HERBICIDES” (E. I. DU PONT DE NEMOURS AND COMPANY, priority 2007, published 2010).

Experiments:
redroot pigweed = test: Test A pre-/postemergence greenhouse test; type: in vivo, Amaranthus retroflexus; details: for Pigweed plant response rating: 0 to 100 scale; for Plant response rating, Pigweed: 0 to 100 scale where 0 is no effect and 100 is complete control
Procedure, shortened: (§1)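 Herbicidal effect is a visual injury score given about ten days post-treatment by comparison with untreated controls. Preemergence plots received a directed spray onto sown loam–sand soil; postemergence plants, at the one- to two-leaf stage and 2–10 cm tall, were sprayed at the same time.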

[1] = system: common (oilseed) sunflower; test: Test C pre-/postemergence test; type: in vivo, Helianthus annuus
Procedure, shortened: (§2)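 Seeds were planted and treated preemergence with test chemical in a non-phytotoxic solvent mixture containing surfactant. Postemergence applications of the same formulation went onto plants 2 to 18 cm tall (1- to 4-leaf stage). A dash marks no test result.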

pigweed = test: Test C pre-/postemergence test; type: in vivo, Amaranthus retroflexus
Procedure, shortened: as §2

velvetleaf = test: Test C pre-/postemergence test; type: in vivo, Abutilon theophrasti
Procedure, shortened: as §2

corn = test: Test A pre-/postemergence greenhouse test; type: in vivo, Zea mays; details: for Corn plant response rating: 0 to 100 scale; for Plant response rating, Corn: 0 to 100 scale where 0 is no effect and 100 is complete control
Procedure, shortened: as §1

wild oat = test: Test C pre-/postemergence test; type: in vivo, Avena fatua
Procedure, shortened: as §2

catchweed bedstraw = test: Test C pre-/postemergence test; type: in vivo, Galium aparine
Procedure, shortened: as §2

wheat = test: Test C pre-/postemergence test; type: in vivo, Triticum aestivum
Procedure, shortened: as §2

blackgrass = test: Test C pre-/postemergence test; type: in vivo, Alopecurus myosuroides
Procedure, shortened: as §2

duck salad = test: Test C flooded paddy test; type: in vivo, Heteranthera limosa; details: Flood
Procedure, shortened: (§3)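 Visual injury ratings against untreated controls, taken 13 to 15 days after compound was added to paddy water standing 3 cm above the soil.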

kochia = test: Test C pre-/postemergence test; type: in vivo, Kochia scoparia
Procedure, shortened: as §2

barnyardgrass = test: Test C flooded paddy test; type: in vivo, Echinochloa crus-galli; details: Flood
Procedure, shortened: as §3

eastern black nightshade = test: Test C pre-/postemergence test; type: in vivo, Solanum ptycanthum
Procedure, shortened: as §2

bermudagrass = test: Test C pre-/postemergence test; type: in vivo, Cynodon dactylon
Procedure, shortened: as §2

crabgrass = test: Test C pre-/postemergence test; type: in vivo, Digitaria sanguinalis
Procedure, shortened: as §2

Surinam grass = test: Test C pre-/postemergence test; type: in vivo, Brachiaria decumbens
Procedure, shortened: as §2

rice = test: Test C flooded paddy test; type: in vivo, Oryza sativa; details: Flood
Procedure, shortened: as §3

[2] = Postemergence, 125 g ai/ha, 0 is no effect, 100 is complete control
[3] = Postemergence, 500 g ai/ha, 0 is no effect, 100 is complete control
[4] = Preemergence, 125 g ai/ha, 0 no effect, 100 complete control
[5] = 62 g ai/ha, Preemergence, scale 0 to 100
[6] = 125 g ai/ha, preemergence, scale 0 (no effect) to 100 (complete control)
[7] = Preemergence, 31 g ai/ha, scale 0 to 100 (0 no effect, 100 complete control)
[8] = preemergence, 250 g ai/ha, scale 0 (no effect) to 100 (complete control)
[9] = 31 g ai/ha, scale 0 to 100 (0 no effect, 100 complete control)
[10] = 62 g ai/ha, scale 0 to 100, 0 no effect, 100 complete control, 13 to 15 days
[11] = 125 g ai/ha, scale 0 to 100, 0 no effect, 100 complete control, 13 to 15 days
[12] = 250 g ai/ha, scale 0 to 100, 0 no effect, 100 complete control, 13 to 15 days
[13] = 62 g ai/ha, preemergence, scale 0 (no effect) to 100 (complete control)
[14] = preemergence, 125 g ai/ha, scale 0 (no effect) to 100 (complete control)
[15] = 31 g ai/ha, Preemergence, scale 0 to 100
[16] = 250 g ai/ha, scale 0 to 100 (0 no effect, 100 complete control)

Cn1nc(C(F)(F)F)c(C(Cl)S(=O)(=O)c2cccc[n+]2[O-])c1OCC(F)(F)F (racemic) [Compound 36]
0: Sunflower plant response rating [1, 5] | Sunflower plant response rating [1, 6] | Plant response rating, Sunflower [1, 7] | Sunflower plant response rating [1, 8] | Velvetleaf plant response rating (velvetleaf; [5]) | Plant response rating, Velvetleaf (velvetleaf; [7]) | Corn plant response rating (corn; [2]) | Corn plant response rating (corn; [3]) | Corn plant response rating (corn; [4]) | Plant response rating, Corn (corn; Preemergence, 500 g ai/ha) | Galium plant response rating (catchweed bedstraw; [5]) | Plant response rating, Galium (catchweed bedstraw; [7]) | Wheat plant response rating (wheat; [5]) | Wheat plant response rating (wheat; [6]) | Plant response rating, Wheat (wheat; [7]) | Plant response rating, Kochia (kochia; [7]) | Plant response rating, Barnyardgrass (barnyardgrass; [9]) | Plant response rating, Rice (rice; [9])
15: Wheat plant response rating (wheat; [8])
100: Pigweed plant response rating (redroot pigweed; [4]) | Plant response rating, Pigweed (redroot pigweed; Preemergence, 500 g ai/ha) | Pigweed plant response rating (pigweed; [6]) | Pigweed plant response rating (pigweed; [8]) | Galium plant response rating (catchweed bedstraw; [6]) | Galium plant response rating (catchweed bedstraw; [8]) | Blackgrass plant response rating (blackgrass; [8]) | Kochia plant response rating (kochia; [8]) | Bermudagrass plant response rating (bermudagrass; 62 g ai/ha, Preemergence, scale 0 to 100 (0 no effect, 100 complete control)) | Bermudagrass plant response rating (bermudagrass; [6]) | Bermudagrass plant response rating (bermudagrass; [8]) | Crabgrass, Large plant response rating (crabgrass; [6]) | Crabgrass, Large plant response rating (crabgrass; [8]) | Surinam Grass plant response rating (Surinam grass; [6]) | Surinam Grass plant response rating (Surinam grass; [8])
40: Velvetleaf plant response rating (velvetleaf; [6]) | Oat, Wild plant response rating (wild oat; [6])
50: Plant response rating, Surinam Grass (Surinam grass; [7])
60: Pigweed plant response rating (redroot pigweed; [3]) | Plant response rating, Blackgrass (blackgrass; [7]) | Plant response rating, Rice (rice; [11])
20: Kochia plant response rating (kochia; [6])
80: Plant response rating, Pigweed (pigweed; [7]) | Oat, Wild plant response rating (wild oat; [8]) | Nightshade plant response rating (eastern black nightshade; [6]) | Nightshade plant response rating (eastern black nightshade; [8]) | Crabgrass, Large plant response rating (crabgrass; [5]) | Surinam Grass plant response rating (Surinam grass; [5])
30: Oat, Wild plant response rating (wild oat; [5])
65: Plant response rating, Crabgrass, Large (crabgrass; [7])
10: Pigweed plant response rating (redroot pigweed; [2]) | Plant response rating, Barnyardgrass (barnyardgrass; [10])
90: Pigweed plant response rating (pigweed; [5]) | Plant response rating, Ducksalad (duck salad; [11]) | Plant response rating, Ducksalad (duck salad; [12]) | Plant response rating, Barnyardgrass (barnyardgrass; [12])
85: Plant response rating, Ducksalad (duck salad; [9]) | Plant response rating, Ducksalad (duck salad; [10]) | Plant response rating, Bermudagrass (bermudagrass; [7])
95: Blackgrass plant response rating (blackgrass; [5]) | Blackgrass plant response rating (blackgrass; [6])
70: Velvetleaf plant response rating (velvetleaf; [8]) | Nightshade plant response rating (eastern black nightshade; [5]) | Plant response rating, Nightshade (eastern black nightshade; [7])
25: Plant response rating, Oat, Wild (wild oat; [7]) | Plant response rating, Barnyardgrass (barnyardgrass; [11]) | Plant response rating, Rice (rice; [10])
75: Plant response rating, Rice (rice; [12])

Cc1cc[n+]([O-])c(S(=O)(=O)C(C)c2c(C(F)(F)F)nn(C)c2OC(F)F)c1 (centres unmarked) [Compound 11]
65: Plant response rating, Ducksalad (duck salad; [10])
75: Plant response rating, Barnyardgrass (barnyardgrass; [11])
98: Plant response rating (0 to 100), Sunflower ([1]; Preemergence, 250 g ai/ha) | Sunflower plant response rating [1, 14]
0: Oat, Wild plant response rating (wild oat; [15]) | Oat, Wild plant response rating (wild oat; [13]) | Blackgrass plant response rating (blackgrass; [15]) | Blackgrass plant response rating (blackgrass; [13]) | Plant response rating, Ducksalad (duck salad; [9]) | Plant response rating, Barnyardgrass (barnyardgrass; [9]) | Plant response rating, Rice (rice; [9])
30: Sunflower plant response rating [1, 13] | Corn plant response rating (corn; [2]) | Corn plant response rating (corn; [4])
85: Plant response rating (0 to 100), Wheat (wheat; Preemergence, 250 g ai/ha) | Plant response rating, Ducksalad (duck salad; [11]) | Plant response rating, Barnyardgrass (barnyardgrass; [16])
10: Pigweed plant response rating (redroot pigweed; [2])
70: Velvetleaf plant response rating (velvetleaf; [13]) | Plant response rating, Barnyardgrass (barnyardgrass; [10]) | Plant response rating, Rice (rice; [10])
20: Oat, Wild plant response rating (wild oat; [14]) | Wheat plant response rating (wheat; [13])
95: Nightshade plant response rating (eastern black nightshade; [15]) | Surinam Grass plant response rating (Surinam grass; [14])
50: Corn plant response rating (corn; [3]) | Galium plant response rating (catchweed bedstraw; [15])
90: Plant response rating (0 to 100), Blackgrass (blackgrass; Preemergence, 250 g ai/ha) | Blackgrass plant response rating (blackgrass; [14]) | Plant response rating, Ducksalad (duck salad; [16])
80: Plant response rating (0 to 100), Oat, Wild (wild oat; Preemergence, 250 g ai/ha) | Wheat plant response rating (wheat; [14]) | Surinam Grass plant response rating (Surinam grass; [13]) | Plant response rating, Rice (rice; [11]) | Plant response rating, Rice (rice; [16])
60: Pigweed plant response rating (redroot pigweed; [3]) | Plant response rating, Corn (corn; Preemergence, 500 g ai/ha) | Kochia plant response rating (kochia; [15])
100: Pigweed plant response rating (redroot pigweed; [4]) | Plant response rating, Pigweed (redroot pigweed; Preemergence, 500 g ai/ha) | Pigweed plant response rating (pigweed; [15]) | Pigweed plant response rating (pigweed; [13]) | Plant response rating (0 to 100), Pigweed (pigweed; Preemergence, 250 g ai/ha) | Pigweed plant response rating (pigweed; [14]) | Plant response rating (0 to 100), Velvetleaf (velvetleaf; Preemergence, 250 g ai/ha) | Velvetleaf plant response rating (velvetleaf; [14]) | Galium plant response rating (catchweed bedstraw; [13]) | Plant response rating (0 to 100), Galium (catchweed bedstraw; Preemergence, 250 g ai/ha) | Galium plant response rating (catchweed bedstraw; [14]) | Kochia plant response rating (kochia; [13]) | Plant response rating (0 to 100), Kochia (kochia; Preemergence, 250 g ai/ha) | Kochia plant response rating (kochia; [14]) | Nightshade plant response rating (eastern black nightshade; [13]) | Plant response rating (0 to 100), Nightshade (eastern black nightshade; Preemergence, 250 g ai/ha) | Nightshade plant response rating (eastern black nightshade; [14]) | Bermudagrass plant response rating (bermudagrass; [15]) | Bermudagrass plant response rating (bermudagrass; [13]) | Plant response rating (0 to 100), Bermudagrass (bermudagrass; Preemergence, 250 g ai/ha) | Bermudagrass plant response rating (bermudagrass; [14]) | Crabgrass, Large plant response rating (crabgrass; [15]) | Crabgrass, Large plant response rating (crabgrass; [13]) | Plant response rating (0 to 100), Crabgrass, Large (crabgrass; Preemergence, 250 g ai/ha) | Crabgrass, Large plant response rating (crabgrass; [14]) | Plant response rating (0 to 100), Surinam Grass (Surinam grass; Preemergence, 250 g ai/ha)
